According to patent US8865748B2, “Compounds and compositions for stabilizing hypoxia inducible factor-2 alpha as a method for treating cancer” (Akebia Therapeutics Inc., priority 2011, dated 2014):

Experiments:
[1] = tested on: VEGF; assay: VEGF production by human peripheral blood monocytes (ELISA, real-time PCR); assay type: cell-based; conditions: FIG. 11C
Method: (§1) Human peripheral blood mononuclear cells (PBMCs) were isolated from fresh peripheral blood leukocyte source packs (American Red Cross, Columbus Ohio) by density gradient centrifugation over Lymphocyte Separation Medium (Cellgro). Monocytes were purified from total PBMCs by layering over FBS. Monocytes were cultured in endotoxin-free RPMI-1640 supplemented with 1% fetal bovine serum (FBS), 0.1% human serum albumin (HSA), and 10 μg/mL of the endotoxin inhibitor polymyxin B. In some experiments, freshly isolated monocytes were differentiated into macrophages by three-day culture in media containing 10% FBS, 1% PSA (penicillin G sodium, streptomycin sulfate, and amphotericin B), and 20 ng/mL M-CSF. Macrophages were serum-starved for 2 hours prior to stimulation. Monocytes or monocyte-derived macrophages were treated for 24 hours with 10 ng/mL GM-CSF, 10 μM disclosed HIF-2α stabilizer, or an equivalent volume of the vehicle controls (PBS or DMSO, respectively). Cell-free culture supernatants were harvested and analyzed for VEGF or sVEGFR-1 by ELISA (R&D Systems).
Human monocytes were left untreated or were stimulated with 100 ng/mL GM-CSF at normoxia or at 0.5% O2. At various time-points, cells were harvested in Trizol reagent (Invitrogen) and RNA was extracted in chloroform and then purified using the RNeasy Minikit (Qiagen). In murine studies, organs harvested at the time of euthanasia were flash-frozen in liquid nitrogen, pulverized in liquid nitrogen, and then dissolved in Trizol. cDNA was generated from 1 μg of RNA using the Superscript First Strand Synthesis System (Invitrogen) and used for real-time PCR using previously described primers and SYBR Green PCR Master Mix (Applied Biosciences), according to the manufacturer's instructions. Data were analyzed according to the comparative threshold method and normalized against the β-actin internal control transcript. Results are semi-quantitative and represent the fold difference in transcript levels in a particular sample as compared with levels in untreated cells from the same donor.
VEGF protein was undetectable in the supernatants of GM-CSF-stimulated monocytes, due to neutralization of VEGF by sVEGFR-1 (FIG. 11C).
Since monocyte production of VEGF was dependent on HIF-1α, the inventors herein determined whether selective stabilization of HIF-1α via inhibition of PHD2 would increase monocyte production of VEGF but not sVEGFR-1. In order to make such determination, human peripheral blood monocytes were stimulated with GM-CSF in the presence of a selective inhibitor of PHD2 which results in the stabilization of HIF-1α.

[2] = tested on: endothelial cell marker CD31; assay: Tumor vascularity by CD31 immunohistochemistry in melanoma-bearing mice; assay type: in vivo; conditions: mice treated with the control antibody; FIG. 14B; p=0.022
[3] = tested on: HIF-2α; assay: Immunoblot for HIF-2α in murine bone marrow-derived macrophages; assay type: cell-based; conditions: treated for 18 hours, FIG. 11A
Method: (§2) To generate bone marrow-derived macrophages (BDMs), femoral bone marrow was isolated and progenitor cells were plated in RPMI-1640 supplemented with 10% FBS, 1% PSA, 10 μg/mL of polymyxin B, and 20 ng/mL of recombinant murine M-CSF. Cells were cultured for 5 days with the addition of fresh M-CSF every other day. Differentiated BDM were serum-starved for 2 hours and then treated with 100 ng/mL of murine GM-CSF and/or 25 μM the disclosed HIF-2α stabilizer in RPMI-1640 containing 1% FBS and 10 μg/mL polymixin B. Culture supernatants were collected after 72 hours and assayed for VEGF and sVEGFR-1 content by ELISA (R&D Systems).
(§3) In order to confirm the selective upregulation of HIF-2α by the disclosed HIF-2α stabilizer, murine bone marrow-derived macrophages were treated with the disclosed HIF-2α stabilizer for 18 hours, and cells were then lysed and immunoblotted for HIF-1α and HIF-2α.

[4] = tested on: sVEGFR-1; assay: sVEGFR-1 production by human peripheral blood monocytes (ELISA, real-time PCR); assay type: cell-based; conditions: monocytes stimulated with 100 ng/mL GM-CSF, presence vs. absence of 10 μM stabilizer, FIG. 11B
Method: as §1
Human monocytes were left untreated or were stimulated with 100 ng/mL GM-CSF at normoxia or at 0.5% O2. At various time-points, cells were harvested in Trizol reagent (Invitrogen) and RNA was extracted in chloroform and then purified using the RNeasy Minikit (Qiagen). […] Data were analyzed according to the comparative threshold method and normalized against the β-actin internal control transcript. Results are semi-quantitative and represent the fold difference in transcript levels in a particular sample as compared with levels in untreated cells from the same donor.
Since monocyte production of VEGF was dependent on HIF-1α, the inventors herein determined whether selective stabilization of HIF-1α via inhibition of PHD2 would increase monocyte production of VEGF but not sVEGFR-1. […]

[5] = tested on: tumor growth; assay: Tumor growth in LysMcre control mice and mice with myeloid-specific deletion of HIF-2α; assay type: in vivo; conditions: FIG. 15
Description: HIF-2α^flox/flox mice (originally developed by Dr. Celeste Simon, University of Pennsylvania) and LysMcre recombinase mice (originally developed by Irmgard Foerster, University of Duesseldorf) (both purchased from The Jackson Laboratory, Bar Harbor, Me.) were crossed to generate mice homozygous for both LysMcre and the floxed HIF-2α allele. LysMcre recombinase mice, which express no floxed alleles, were used as controls. Deletion of HIF-2α in HIF-2α^flox/flox/LysMcre macrophages, but not the LysMcre control macrophages, was confirmed at the transcript level by real-time PCR.
The disclosed HIF-2α stabilizer is not targeted specifically to macrophages, and will stabilize HIF-2α in all tissues, not only the tumor-associated macrophages. In order to determine the role of macrophages in the anti-tumor response to the disclosed HIF-2α stabilizer, mice with a myeloid-specific deletion of HIF-2α (HIF-2α^flox/flox/LysMcre mice) were utilized.

[6] = tested on: HIF-1α; assay: Immunoblot for HIF-1α in murine bone marrow-derived macrophages; assay type: cell-based; conditions: treated for 18 hours, FIG. 11A
Method: as §2, §3

[7] = mice with HIF-2α-deficient macrophages

O=C(O)CNC(=O)c1ncc(-c2cccc(F)c2)cc1O [disclosed HIF-2α stabilizer, {[5-(3-Fluorophenyl)-3-hydroxypyridine-2-carbonyl]amino}acetic acid]
VEGF production, transcript levels by real-time PCR ([1]; GM-CSF alone vs. GM-CSF and stabilizer, p=0.556): no difference | production of VEGF protein (free VEGF ELISA) ([1]; same supernatants as sVEGFR-1, 10 μM stabilizer, p=0.133): did not significantly increase | tumor vascularity (CD31) [2]: decreased tumor vascularity | HIF-2α protein [3]: increase | sVEGFR-1 production, protein level ([4]; p=0.007): increased significantly | sVEGFR-1 production, transcript level ([4]; p=0.033): increased significantly | tumor growth ([5]; LysMcre control mice): inhibited tumor growth | magnitude of the anti-tumor response relative to control mice [5, 7]: much less | tumor growth [5, 7]: reduced tumor growth | HIF-1α protein [6]: no corresponding increase
